Experimental findings from patent publication US7728107B2 (priority 2005, dated 2010) are described below.

Experiment [1] has as its target T1, canine 5-HT2A receptor (Canis lupus familiaris, UniProt O46635). Conditions: for Ratio c5-HT2A vs. h5-HT2A: ratio of binding affinities canine vs human 5-HT2A.
Experiment [2] concerns the target T1, canine 5-HT2A receptor. The experiment can be described thus: cell-based. Format: cell-based. On the set-up: The resulting 5-HT2A full length cDNA was cloned into the pCIneo vector; expressed in transfected cells. Conditions: for Rel. eff. c5-HT2A: HEK-293, fraction of response to 10 μM 5-HT; for agonist potency at canine 5-HT2A compared to human 5-HT2A: Table 3.

The target in experiment [3] is T2, canine 5-HT2B receptor (Canis lupus familiaris, UniProt Q50DZ8). The experiment in a line: biochemical. It counts as binding. Set-up: Apparent equilibrium dissociation constant KD; other: canine 5-HT2B, COS-7 membranes, mean ± S.E.M. (n = 3 to 6); other: COS-7 membranes; head prints [^3H]-ketanserin; mean ± S.E.M of 3-8 experiments; KD of radioligand; other: canine 5-HT2B, transfected COS-7 membranes; other: HEK-293, Ca^2+ FLIPR, mean ± S.E.M of 3 to 6 experime.

In experiment [4] the target is T2, canine 5-HT2B receptor. The experiment in a line: cell-based. Format: cell-based. On the set-up: Apparent equilibrium dissociation constant KD; other: canine 5-HT2B, COS-7 membranes, mean ± S.E.M. (n = 3 to 6); other: COS-7 membranes; head prints [^3H]-ketanserin; mean ± S.E.M of 3-8 experiments; KD of radioligand; other: canine 5-HT2B, transfected COS-7 membranes; other: HEK-293, Ca^2+ FLIPR, mean ± S.E.M of 3 to 6 experime.

In experiment [5] the target is T3, human 5-HT2A receptor (Homo sapiens, UniProt P28223).
T3 construct: expressed in transfected cells
T3 sequence (P28223 whole entry): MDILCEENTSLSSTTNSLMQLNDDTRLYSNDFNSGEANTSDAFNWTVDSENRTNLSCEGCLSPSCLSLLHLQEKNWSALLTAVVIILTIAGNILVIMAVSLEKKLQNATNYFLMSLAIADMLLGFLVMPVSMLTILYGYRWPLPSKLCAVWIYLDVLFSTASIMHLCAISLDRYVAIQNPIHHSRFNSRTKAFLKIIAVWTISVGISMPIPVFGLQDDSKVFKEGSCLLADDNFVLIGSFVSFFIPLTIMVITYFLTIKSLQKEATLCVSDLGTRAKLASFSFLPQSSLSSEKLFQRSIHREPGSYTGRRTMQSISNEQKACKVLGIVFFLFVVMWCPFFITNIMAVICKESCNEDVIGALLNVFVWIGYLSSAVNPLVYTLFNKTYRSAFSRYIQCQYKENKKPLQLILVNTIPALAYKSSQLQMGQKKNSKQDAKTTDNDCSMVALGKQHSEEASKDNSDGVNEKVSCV
The experiment in a line: biochemical. It counts as binding.

Experiment [6] relates to canine 5-HT2B receptor. The experiment in a line: biochemical. It counts as binding. Conditions: ratio of binding affinities canine vs human 5-HT2B.
Experiment [7] concerns the target T4, human 5-HT2B receptor (Homo sapiens, UniProt P41595).
T4 construct: expressed in transfected cells
The experiment can be described thus: biochemical. Format: binding.

Experiment [8] addresses T3, human 5-HT2A receptor. The experiment can be described thus: cell-based. Format: cell-based.
The target in experiment [9] is T4, human 5-HT2B receptor. The experiment can be described thus: cell-based. It counts as cell-based. Conditions: CHO; for Rel. eff h5-HT2B: fraction of response to 10 μM 5-HT.
Experiment [10] deals with T1, canine 5-HT2A receptor. The experiment can be described thus: biochemical.
Experiment [11] deals with non-transfected cells (HEK-293, NIH3T3 or CHO). The experiment can be described thus: FLIPR Ca^2+ assay in non-transfected cells. The note with it: non-transfected HEK-293, CHO or NIH3T3 cells. It counts as cell-based. Here is the method: Dye-loaded cells were plated onto 96-well ViewPlates (Packard, Meriden, Conn.) and incubated at 37° C. and 5% CO2 for one hour. Once dye-loaded, dye media was replaced with serum-free DMEM/F-12. […] Ligand-induced Ca^2+ release was measured using a Fluorometric Imaging Plate Reader (FLIPR, Molecular Devices, Sunnyvale, Calif.). Functional responses were measured as peak fluorescence intensity minus basal. The concentration of agonist that produced a half-maximal response is represented by the EC50 value. […] Antagonistic potency values were converted to apparent pKB values using a modified Cheng-Prusoff correction. Apparent pKB=−log IC50/1+[conc agonist/EC50]. Data are expressed as mean±S.E.M.
None of the compounds (10 μM) tested elicited a response in non-transfected cells (HEK-293, NIH3T3 or CHO). In addition, none of the antagonists tested increased Ca^2+ in any of the transfected cell types.

Experiment [12] has as its target T1, canine 5-HT2A receptor. The experiment can be described thus: Saturation binding of [^3H]5-HT to membranes of COS-7 cells transfected with canine 5-HT2A receptor.
[13] abbreviates: HEK-293, Ca^2+ FLIPR, apparent pKB, mean ± S.E.M of 3 to 6 experiments.

Structures are written as SMILES. Like-named read-outs stand apart in the source and are kept apart here.

T4 sequence (P41595 whole entry): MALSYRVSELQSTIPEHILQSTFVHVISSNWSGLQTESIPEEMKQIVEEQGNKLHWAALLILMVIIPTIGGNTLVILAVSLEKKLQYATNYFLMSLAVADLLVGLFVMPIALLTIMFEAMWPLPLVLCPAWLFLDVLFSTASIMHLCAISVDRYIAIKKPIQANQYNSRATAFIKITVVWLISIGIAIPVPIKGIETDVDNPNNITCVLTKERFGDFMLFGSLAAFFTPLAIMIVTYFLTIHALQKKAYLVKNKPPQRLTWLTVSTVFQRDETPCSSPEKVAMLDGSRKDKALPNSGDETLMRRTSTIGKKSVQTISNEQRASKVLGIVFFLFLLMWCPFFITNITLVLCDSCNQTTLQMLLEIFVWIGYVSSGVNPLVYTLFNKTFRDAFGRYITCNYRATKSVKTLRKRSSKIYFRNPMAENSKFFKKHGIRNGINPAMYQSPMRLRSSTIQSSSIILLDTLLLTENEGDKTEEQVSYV
T1 sequence (O46635 whole entry): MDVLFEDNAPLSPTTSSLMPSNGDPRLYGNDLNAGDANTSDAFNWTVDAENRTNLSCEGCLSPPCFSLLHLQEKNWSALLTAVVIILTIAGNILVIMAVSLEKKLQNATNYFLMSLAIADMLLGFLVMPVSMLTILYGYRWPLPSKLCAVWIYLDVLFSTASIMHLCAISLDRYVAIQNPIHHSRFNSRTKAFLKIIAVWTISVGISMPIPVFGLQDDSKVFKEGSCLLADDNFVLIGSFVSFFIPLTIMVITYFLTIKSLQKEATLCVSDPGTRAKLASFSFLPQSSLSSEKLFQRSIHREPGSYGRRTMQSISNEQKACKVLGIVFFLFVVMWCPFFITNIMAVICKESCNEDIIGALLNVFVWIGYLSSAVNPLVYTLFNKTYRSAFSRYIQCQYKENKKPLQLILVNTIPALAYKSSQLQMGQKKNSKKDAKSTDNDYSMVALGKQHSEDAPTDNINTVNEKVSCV

For the compound `CSc1ccc2c(c1)C(N1CCN(C)CC1)Cc1ccccc1S2` (stereo not drawn) [Methiothepin, methiothepin], the Ki at canine 5-HT2A receptor [1] is 3.55 nM. Further, at canine 5-HT2A receptor [2] (setting [13]), the “Antagonist affinity pKB c5-HT2A” value came out at 8.33 ± 0.09. Further, the “antagonist affinity for canine 5-HT2A receptor compared to human 5-HT2A receptor” value at canine 5-HT2A receptor [2] (functional Ca^2+ assay, Table 4) is “eleven-fold higher affinity”. For the same compound, on canine 5-HT2B receptor [3] (COS-7 membranes, head prints [^3H]-ketanserin, mean ± S.E.M of 3-8 experiments), the “Affinity constant pKI c5-HT2B” value is 8.12 ± 0.16. Also, the “Antagonist affinity pKB c5-HT2B” value at canine 5-HT2B receptor [4] (setting [13]) turned out to be 8.07 ± 0.77.
As to `NCCc1c[nH]c2ccc(C(N)=O)cc12` [5-CT, 5-carboxyamidotryptamine], the Ki is 1150 nM at human 5-HT2A receptor [5], 61.7 nM on human 5-HT2B receptor [7], 2290 nM on canine 5-HT2A receptor [10] and 74.1 nM on canine 5-HT2B receptor [3]. Also, in the experiment with canine 5-HT2B receptor [6], the “Ratio c5-HT2B vs. h5-HT2B” value stood at 1.20. For the same compound, the “Rel. eff. h5-HT2A” value on human 5-HT2A receptor [8] is on record as 0.70 ± 0.13. Also, the “Rel. eff h5-HT2B” value on human 5-HT2B receptor [9] was 0.95 ± 0.01. The “Ratio c5-HT2A vs. h5-HT2A” value at canine 5-HT2A receptor [1] is 1.99. Moreover, the “Rel. eff. c5-HT2A” value on canine 5-HT2A receptor [2] is listed as 0.94 ± 0.08. Besides, the “agonist potency at canine 5-HT2A compared to human 5-HT2A” value at canine 5-HT2A receptor [2] (functional Ca^2+ assay) is “higher potencies”. At canine 5-HT2B receptor [4] (HEK-293, fraction of response to 10 μM 5-HT), the “Rel. eff. c5-HT2B” value was 1.19 ± 0.05.
Take `NCCc1c[nH]c2ccc(O)cc12` [5-HT, 5-hydroxytryptamine]: on human 5-HT2A receptor [8], the “Rel. eff. h5-HT2A” value is reported as 1 and the “peak fluorescence intensity of Ca^2+ response” value is recorded as 15800 peak fluorescence intensity units. Besides, the “Ca^2+ response in non-transfected cells” value in [11] is listed as “No signal”. On canine 5-HT2A receptor [10], this compound showed a Ki of 178 nM. Moreover, the “Rel. eff. c5-HT2A” value at canine 5-HT2A receptor [2] is reported as 1. Also, the “peak fluorescence intensity of Ca^2+ response” value on canine 5-HT2A receptor [2] (canine 5-HT2A, HEK-293, FIG. 5A) is on record as 13600 peak fluorescence intensity units.
For the compound `CN(C)CCO/N=C(/C=C/c1ccc(O)cc1)c1ccccc1F` [Eplivanserin, eplivanserin], the Ki at human 5-HT2A receptor [5] (read-out: Affinity constant pKI h5-HT2A (converted)) was 0.2 nM; at human 5-HT2B receptor [7] (read-out: Affinity constant pKI h5-HT2B (converted)) it was 1410 nM; on canine 5-HT2A receptor [10], 1 nM; on canine 5-HT2B receptor [3] (read-out: Affinity constant pKI c5-HT2B (converted)), 1910 nM. The Kb on human 5-HT2A receptor [8] (NIH3T3, Ca^2+ FLIPR, apparent pKB, mean ± S.E.M of 3 to 6 experiments, read-out: Antagonist affinity pKB h5-HT2A (converted)) was 0.372 nM; on human 5-HT2B receptor [9] (Ca^2+ FLIPR, apparent pKB, mean ± S.E.M of 3 to 6 experiments, read-out: Antagonist affinity pKB h5-HT2B (converted)), greater than 10000 nM; on canine 5-HT2A receptor [2] (HEK-293, Ca^2+ FLIPR, apparent pKB, mean ± S.E.M of 3 to 6 experiments, read-out: Antagonist affinity pKB c5-HT2A (converted)) it was 0.251 nM; at canine 5-HT2B receptor [4] (HEK-293, Ca^2+ FLIPR, apparent pKB, mean ± S.E.M of 3 to 6 experiments, read-out: Antagonist affinity pKB c5-HT2B (converted)), greater than 10000 nM.
As a reminder, the Kd is the equilibrium constant for the complex coming apart. Read a high Kd as a looser complex. Compound `NCCc1c[nH]c2ccc(O)cc12` [[^3H]-5-HT] displayed a Kd at canine 5-HT2A receptor [12] of 3 ± 0.6 nM.
With `FC(F)(F)c1cccc(N2CCNCC2)c1` [TFMPP, N-(3-trifluoromethyl-henyl)piperazine], the Ki on human 5-HT2A receptor [5] was 87.1 nM; at canine 5-HT2A receptor [10] it was 214 nM; on canine 5-HT2B receptor [3], 41.7 nM. The “Ratio c5-HT2B vs. h5-HT2B” value in the experiment with canine 5-HT2B receptor [6] was 1.04. Besides, the “Affinity constant pKI h5-HT2B” value on human 5-HT2B receptor [7] (CHO membranes, head: [^3H]-mesulergine, mean ± S.E.M of 3-8 experiments) turned out to be 7.40 ± 0.05. Moreover, the “Rel. eff. h5-HT2A” value on human 5-HT2A receptor [8] was determined as 0.17 ± 0.01. At human 5-HT2B receptor [9], the “Rel. eff h5-HT2B” value was determined as 0.49 ± 0.04. At canine 5-HT2A receptor [1], the “Ratio c5-HT2A vs. h5-HT2A” value was 2.45. The “Rel. eff. c5-HT2A” value at canine 5-HT2A receptor [2] was determined as 0.72 ± 0.04. Further, the “agonist potency at canine 5-HT2A compared to human 5-HT2A” value on canine 5-HT2A receptor [2] (functional Ca^2+ assay) is “higher potencies”. Besides, at canine 5-HT2B receptor [4] (HEK-293, Ca^2+ FLIPR), the “agonistic response on canine 5-HT2B receptor” value is reported as “no agonistic response”.
